Assay results published in publication PMC11784839, “Monoaminergic neurotransmitters are bimodal effectors of tau aggregation” (Science Advances, 2025).

Target: tau (Homo sapiens, UniProt P10636)
Experiment: MCE Phenols Library screening, tau biosensor cell seeding assay (AvZ)
Assay type: cell-based
Details: for Z repl 1 / Z Repl 2: Z score; for Z repl 1 / raw data 1: replicate 1; for Z Repl 2 / raw data 2: replicate 2; for AvZ (average z score of seeding, SDs from the mean level of seeding): 10 μM phenol in cell cultures, AD brain homogenate preincubated 16 hours, two biological replicates, positive = catalyzes seeding, negative = inhibits
[1] = average Z score of the two replicates, MCE Phenols Library screen
[2] = average puncta of the two replicates
[3] = average Z score of two replicates, Phenols Library screen
[4] = average Z score of the two replicates, tau seeding
[5] = average Z score of the two replicates, tau biosensor seeding, MCE Phenols Library screen

tau, sequence (P10636 623-695 limits assumed): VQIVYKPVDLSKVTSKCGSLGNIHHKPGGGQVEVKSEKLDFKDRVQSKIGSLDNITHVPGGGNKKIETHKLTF

Molecule | Z repl 1 | Z Repl 2 | av Z [1] | av puncta [2] | raw data 1 (raw puncta) | raw data 2 (raw puncta) | av Z [3] | av puncta (average of raw data 1 and 2) | raw data 1 (puncta) | raw data 2 (puncta) | av Z [4] | AvZ (average z score of seeding, SDs from the mean level of seeding) | av Z [5]
COc1cc2c(cc1OC)[C@@H](Cc1ccc(O)c(Oc3cc4c(cc3OC)CCN(C)[C@@H]4Cc3ccc(O)cc3)c1)N(C)CC2 [Liensinine] | -0.418 | -0.081 | -0.249 | 16619 | 21336.6 | 11901.3 | – | – | – | – | – | – | –
O=C1O[C@@H]2[C@@H](O)[C@H](O)[C@@H](CO)O[C@H]2c2c1cc(O)c(O)c2O [Norbergenin] | -0.528 | 0.442 | – | – | – | – | -0.043 | 18743.5 | 20005.8 | 17481.2 | – | – | –
OC[C@]1(O)COc2cc(O)ccc2-c2cc(O)c(O)cc2C1 [Protosappanin B] | -0.022 | -0.809 | -0.415 | 15106.6 | 26082.6 | 4130.62 | – | – | – | – | – | – | –
O=C1C[C@@H](c2cc(O)c(O)c(O[C@@H]3O[C@H](CO)[C@@H](O)[C@H](O)[C@H]3O)c2)Oc2cc(O)cc(O)c21 [Plantagoside] | 0.333 | -0.026 | – | – | – | – | – | 21412.5 | 30340.8 | 12484.2 | 0.153 | – | –
C[C@@H]1O[C@@H](O[C@H]2[C@H](Oc3c(-c4ccc(O)cc4)oc4cc(O)cc(O)c4c3=O)O[C@H](CO)[C@@H](O)[C@@H]2O)[C@H](O)[C@H](O)[C@H]1O [Kaempferol 3-neohesperidoside] | -1.386 | -0.619 | -1.002 | – | – | – | – | 7935.47 | 9710.86 | 6160.09 | – | – | –
COc1cc(O)c(C(=O)/C=C/c2ccccc2)c(OC)c1 [Flavokawain B] | -0.296 | -0.062 | – | – | – | – | -0.179 | 17449.7 | 22793.1 | 12106.3 | – | – | –
COC(=O)/C=C/c1ccc(O)cc1 [(E)-Methyl 4-coumarate] | 0.336 | -0.209 | – | – | – | – | – | 20459.1 | 30381.4 | 10536.7 | – | 0.064 | –
O=c1c(O)c(-c2ccccc2)oc2cc(O)cc(O)c12 [Galangin] | 0.212 | -0.203 | – | – | – | – | 0.004 | 19744.8 | 28893.6 | 10595.9 | – | – | –
O=C(O)[C@H]1O[C@@H](Oc2c(-c3ccc(O)c(O)c3)oc3cc(O)cc(O)c3c2=O)[C@H](O)[C@@H](O)[C@@H]1O [Miquelianin] | 1.087 | 0.729 | – | – | – | – | – | 29978.8 | 39402.1 | 20555.6 | – | – | 0.908
COc1ccc(-c2oc3c(CC=C(C)C)c(O)cc(O)c3c(=O)c2O)cc1 [Icaritin] | 0.42 | 0.629 | – | – | – | – | – | 25439.4 | 31392.8 | 19486 | 0.525 | – | –
O=C(O)c1ccc(O)c(O)c1O [2,3,4-Trihydroxybenzoic acid] | -0.335 | -0.39 | – | 15461.1 | 22324.8 | 8597.33 | – | – | – | – | – | -0.363 | –
O=c1c(O)c(-c2ccc(O[C@@H]3O[C@H](CO)[C@@H](O)[C@H](O)[C@H]3O)c(O)c2)oc2cc(O)cc(O)c12 [Spiraeoside] | -1.012 | -0.12 | -0.566 | 12842 | – | – | – | – | 14202.4 | 11481.5 | – | – | –
O=C1C[C@@H](c2ccc(O)c(O)c2)Oc2cc(O)cc(O)c21 [Eriodictyol] | -0.756 | 0.192 | -0.282 | 16042.6 | 17267.7 | 14817.6 | – | – | – | – | – | – | –
COc1cc(OC)c2c(=O)cc(-c3ccc(O)c(O)c3)oc2c1 [5,7-Dimethoxyluteolin] | 1.798 | 1.915 | – | – | – | – | – | 40573.2 | 47932.5 | 33213.9 | – | – | 1.856
COc1cc(-c2coc3c([C@@H]4O[C@H](CO)[C@@H](O)[C@H](O)[C@H]4O)c(O)ccc3c2=O)ccc1O [3'-Methoxypuerarin] | 0.567 | -0.096 | – | – | – | – | – | 22452.2 | 33160 | 11744.3 | 0.236 | – | –
O=c1cc(-c2ccc(O)c(O)c2)oc2cc(O)c([C@@H]3O[C@H](CO)[C@@H](O)[C@H](O)[C@H]3O)c(O)c12 [Isoorientin] | 0.708 | 0.042 | – | – | – | – | – | 24030.3 | 34846.9 | 13213.7 | 0.375 | – | –

Molecule | Z repl 1 | Z Repl 2 | av Z [1] | av puncta [2] | raw data 1 (raw puncta) | raw data 2 (raw puncta) | av Z [3] | av puncta (average of raw data 1 and 2) | raw data 1 (puncta) | raw data 2 (puncta) | av Z [4] | AvZ (average z score of seeding, SDs from the mean level of seeding) | av Z [5]
COc1cc2c(cc1O)CC[n+]1cc3c4c(ccc3cc1-2)OCO4 [Groenlandicine] | 0.553 | -0.208 | – | – | – | – | – | 21762.9 | 32984.4 | 10541.3 | 0.172 | – | –
CC[C@@H](C(=O)[C@@H](C)[C@@H](O)[C@H](C)CCc1ccc(C)c(O)c1C(=O)O)[C@H]1O[C@](CC)([C@H]2CC[C@](O)(CC)[C@H](C)O2)C[C@@H]1C [Lasalocid] | 0.41 | -0.218 | – | – | – | – | 0.096 | 20851.6 | 31268.6 | 10434.5 | – | – | –
C[C@@H]1O[C@@H](OC[C@H]2O[C@@H](Oc3c(-c4ccc(O)cc4)oc4cc(O)cc(O)c4c3=O)[C@H](O[C@@H]3O[C@@H](C)[C@H](O)[C@@H](O)[C@H]3O)[C@@H](O)[C@H]2O)[C@H](O)[C@H](O)[C@H]1O [Mauritianin] | 0.781 | 1.032 | – | – | – | – | – | 29752.2 | 35719.4 | 23785 | – | – | 0.906
Oc1ccc2c(c1)OC[C@H]1c3cc4c(cc3O[C@@H]21)OCO4 [(-?)?-Maackiain] | 0.975 | 0.791 | – | – | – | – | – | 29633.2 | 38055.6 | 21210.9 | – | – | 0.883
OC[C@H]1O[C@@H](Oc2cc(O)cc(/C=C/c3ccc(O[C@@H]4O[C@H](CO)[C@@H](O)[C@H](O)[C@H]4O)cc3O)c2)[C@H](O)[C@@H](O)[C@@H]1O [Mulberroside A] | -0.183 | -0.34 | -0.262 | 16641.5 | 24150.5 | 9132.57 | – | – | – | – | – | – | –
COc1cc(CCC(O)CC(O)CCc2ccc(O)c(OC)c2)ccc1O (centres unmarked) [Octahydrocurcumin] | -0.643 | 0.033 | -0.305 | 15871.9 | 18628.3 | 13115.6 | – | – | – | – | – | – | –
O=C1C[C@@H](c2ccc(O[C@@H]3O[C@H](CO)[C@@H](O)[C@H](O)[C@H]3O)cc2)Oc2cc(O)ccc21 [Liquiritin] | 0.131 | -0.067 | – | – | – | – | 0.032 | 19987.6 | 27927.2 | 12048 | – | – | –
COc1ccc(/C=C/c2cc(O)cc(O)c2)cc1 [4'-Methoxyresveratrol] | 0.613 | 0.599 | – | – | – | – | – | 26435.9 | 33711.1 | 19160.7 | 0.606 | – | –
O=c1cc(-c2ccc(O)cc2)oc2c([C@@H]3O[C@H](CO)[C@@H](O)[C@H](O)[C@H]3O)c(O)c([C@@H]3OC[C@H](O)[C@H](O)[C@H]3O)c(O)c12 [Isoschaftoside] | -0.121 | -0.131 | – | – | – | – | -0.126 | 18128.6 | 24892.1 | 11365.2 | – | – | –
O=C(O[C@@H]1Cc2c(O)cc(O)cc2O[C@@H]1c1cc(O)c(O)c(O)c1)c1cc(O)c(O)c(O)c1 [(-)-Epigallocatechin Gallate] | -2.044 | – | -1.608 | – | – | – | – | 1025.27 | 1812.01 | 238.519 | – | – | –
COc1c2ccoc2nc2c(O)cccc12 [Robustine] | 0.29 | 0.728 | – | – | – | – | – | 25188.7 | 29833.7 | 20543.7 | 0.509 | – | –
COC(=O)c1c(C)cc(OC(=O)c2c(C)cc(O)c(C=O)c2O)c(C)c1O [Atranorin] | -0.357 | -0.801 | -0.579 | 13136.9 | – | – | – | – | 22066.2 | 4207.53 | – | – | –
COc1cc(O)c2c(=O)c3c(O[C@@H]4O[C@H](CO)[C@@H](O)[C@H](O)[C@H]4O)ccc(O)c3oc2c1 [Swertianolin] | -0.114 | 0.052 | – | – | – | – | -0.031 | 19147.5 | 24974.7 | 13320.3 | – | – | –
Punicalagin | -2.185 | -1.19 | -1.687 | – | – | – | – | 87.672 | 119.783 | 55.562 | – | – | –
CCC1(O)C(=O)OCc2c1cc1n(c2=O)Cc2cc3cc(O)ccc3nc2-1 (racemic) [(±)-10-Hydroxycamptothecin] | 2.809 | 1.992 | – | – | – | – | – | 47054 | 60066.9 | 34041 | – | – | 2.4
COc1ccc(-c2cc(=O)c3c(O)c(OC)c(OC)cc3o2)cc1OC [5-Desmethylsinensetin] | 0.14 | -0.394 | – | – | – | – | -0.127 | 18294 | 28033.5 | 8554.47 | – | – | –
